Experimental data: patent US9029502B2, “Inhibitors of the epidermal growth factor receptor-heat shock protein 90 binding interaction” (priority 2010, dated 2015)
Ends that are not written are not given here. Peptide text beside a SMILES is read from it. * marks the point of attachment. Biotin = O=C1N[C@H]2[C@H](CS[C@H]2CCCCC(=O)*)N1

Legend:
C57BL/6 mice = assay: Safety in immune-competent C57BL/6 mice; assay type: in vivo; conditions: intraperitoneal, 10 and 30 mg/kg; for histological alterations in evaluated organs: 3 days post-injection
Method: Mice were dosed by intraperitoneal injection with 10 and 30 mg/kg of Disruptin, and brain, lung, liver, heart, kidneys, spleen, stomach, small intestine, mesenteric lymph nodes, cecum, colon, pancreas, ovaries, bone marrow, and eyes were evaluated 3 days post-injection.

UMSCC1 xenografts [1] = assay: In vivo tumor growth study, UMSCC1 xenografts; design: species or system mice
Method: (a) To determine if EGFR level was affected in the UMSCC1 xenograft tumor, mice were injected with either DMSO, specific, or non-specific biotinylated peptide (8 mg/kg) intraperitoneally. Three weeks after the injection, tumors (white arrow) along with some adjacent normal tissue (yellow arrow) were harvested. Immunostaining was performed for EGFR and HSP90. HSP90 levels were not affected by either treatment either in tumor or in the adjacent skin tissue. EGFR expression was reduced in the tumor treated with specific peptide relative to normal adjacent skin cells. (b) The effect on tumor growth was also assessed after treatment with two injections separated by 3 days. Tumor volume was recorded every other day during this period, (c) Time to tumor volume doubling was plotted for each treatment condition using Kaplan-Meier method and (d) Comparisons between any two treatment groups was analyzed by log rank tests.
Mice were handled according to the established procedures of the University of Michigan Laboratory Animals Maintenance Manual. To generate tumor xenografts, 2×10^6 UMSCC1 cells were transplanted into the flanks of athymic nude Foxn1^nu mice (Harlan Laboratories). […]
Tumor volume doubling was determined for each xenograft by identifying the earliest day on which it was at least twice as large as on the first day of treatment. […]

UMSCC1 xenografts [2] = assay: Peptide internalization assay in UMSCC1 xenografts; assay type: in vivo; conditions: 8 mg/kg, i.p., nude mice with UMSCC1 xenografts
Method: Delivery of the peptide to the UMSCC1 xenografts was assessed after injection of peptides (8 mg/kg, i.p.), 3 days later the tumors were removed, cryosections were immunostained for EGFR, and the internalized biotinylated peptide was visualized by Streptavidin Alexa Fluor […] reagent.
The UMSCC1 xenografts were cryopreserved in OCT (Electron Microscopy Sciences). Five μm sections were cut from tissues prepared on days 1 and 3 after peptide treatment. Sections were fixed in cold methanol for 20 min and then were blocked with 1% Bovine Serum Albumin (BSA). The sections were incubated overnight with anti-EGFR antibody (Santa Cruz). After washing, the sections were incubated with anti-rabbit Alexa Fluor 488 (Molecular Probes) and Streptavidin conjugated Alexa Fluor 594 (Molecular Probes). Coverslips were mounted with one drop of Prolong Gold anti-fade reagent with DAPI (4,6-diamidino-2-phenylindole; Molecular Probes) to visualize the nuclei. Fluorescence images were acquired using a DP70 camera fitted on an Olympus 1X-71 microscope.

MRC5 = assay: Clonogenic cell survival assay, MRC5; assay type: cell-based; conditions: cell permeable peptides; MRC5, normal human fibroblasts, WT-EGFR
Method: (§1) Clonogenic assays were performed using standard techniques.^34 The fraction surviving each treatment was normalized to the survival of the control cells. Peptide cell survival curves were fitted using the equation SF=(C50)^m/[(C50)^m+C^m], where SF is the surviving fraction, C is the peptide concentration, C50 is the concentration of peptide that produces a 50% cell survival and m is the slope of the sigmoid curve.
(§2) We then assessed colonogenic survival in head and neck (UMSCC1, UMSCC10B, UMSCC74B), lung (A549, H1975, H3255), and HeLa cancer cells. Normal human esophageal squamous epithelial (Het1A) and lung fibroblast (MRC5) cell lines along with EGFR negative CHO cells were selected to study selectivity.

HeLa = assay: Clonogenic cell survival assay, HeLa; assay type: cell-based, human; conditions: cell permeable peptides, cervical cancer, WT-EGFR
Method: as §1, §2

EGFR = assay type: in vivo, mice; conditions: UMSCC1 xenograft, 8 mg/kg intraperitoneally
Method: Delivery of the peptide to the UMSCC1 xenografts was assessed after injection of peptides (8 mg/kg, i.p.), 3 days later the tumors were removed, cryosections were immunostained for EGFR, and the internalized biotinylated peptide was visualized by Streptavidin Alexa Fluor 562 reagent.

UMSCC1 cells = assay: Clonogenic cell survival assay, UMSCC1; assay type: cell-based, human
Method: as §1, §2

UMSCC10B = assay: Clonogenic cell survival assay, UMSCC10B; assay type: cell-based, human; conditions: cell permeable peptides, H&N cancer, WT-EGFR
Method: as §1, §2

A549 = assay: Clonogenic cell survival assay, A549; assay type: cell-based, human; conditions: cell permeable peptides; A549, lung cancer, WT-EGFR
Method: as §1, §2

H1975 = assay: Clonogenic cell survival assay, H1975; assay type: cell-based, human; conditions: cell permeable peptides; H1975, lung cancer, T790M-EGFR
Method: as §1, §2

EGFR-HSP90 interaction = biological target: T1, EGFR-HSP90 interaction (Homo sapiens, UniProt P07900); assay: EGFR-HSP90 interaction by immunoprecipitation and immunoblotting; assay type: cell-based; conditions: 24-hour exposure; cancer cell lines (UMSCC1, H1975); GA 50 nM as positive control
T1 construct: endogenous in cells; host or cells: UMSCC1, H1975, Het1A, MRC5

H3255 = assay: Clonogenic cell survival assay, H3255; assay type: cell-based, human; conditions: cell permeable peptides; H3255, lung cancer, L858R-EGFR
Method: as §1, §2

UMSCC74B = assay: Clonogenic cell survival assay, UMSCC74B; assay type: cell-based, human; conditions: cell permeable peptides, H&N cancer, WT-EGFR
Method: as §1, §2

HSP90 = biological target: T2, HSP90 (Homo sapiens, UniProt P07900); assay: Peptide binding assay (streptavidin pull-down of biotinylated peptide, HSP90 immunoblot); conditions: UMSCC1 cell lysate; 10, 30 and 100 μg/ml
T2 construct: cell lysates from cancer or normal cells were prepared by 3 freeze-thaw cycles; endogenous in cells; host or cells: UMSCC1, H1975, Het1A, MRC5 (A11); UMSCC1 (A13)
Method: (a) To determine if the lead peptide interacts directly with tumor HSP90, cell lysates from cancer or normal cells were prepared by 3 freeze-thaw cycles and then incubated with 3 μg/ml of specific or non-specific biotin coupled peptides for 2 hours. The peptide was affinity purified using Streptavidin-agarose beads, and bound HSP90 was detected by immunoblotting for HSP90. […] (b) The effect of the treatment with specific and non-specific peptide on HSP90-EGFR interaction was determined by IP of HSP90 followed by IB with EGFR at 24 hours post treatment. […] The increased levels of HSP70 upon GA treatment indicate inhibition of HSP90 activity. (c) Specificity of the peptide treatment compared to GA was evaluated in tumor and normal cells as described in FIG. 3b, by assessing the levels of EGFR and PARP cleavage (marker of apoptotic cell death) at 72 hours post treatment, (d) cell survival was assessed using colony formation assay.
(a) UMSCC1 cell lysate was incubated with three concentrations of specific or non-specific peptide (10, 30 and 100 μg/ml) followed by immunoblotting with anti-HSP90 antibody. […] (b) The effect of EGFR specific peptide on HSP90's ability to bind with ATP was assessed. […] Bound protein was eluted in SDS-PAGE buffer, and the levels were determined by immunoblot analysis. […]

CHO = assay: Clonogenic cell survival assay, CHO; assay type: cell-based; conditions: cell permeable peptides, hamster ovarian
Method: as §1, §2

Het1A = assay: Clonogenic cell survival assay, Het1A; assay type: cell-based; conditions: cell permeable peptides, normal human epithelial, WT-EGFR
Method: as §1, §2

Q: `COC1=C2C[C@@H](C)C[C@H](OC)[C@H](O)[C@@H](C)/C=C(\C)[C@H](OC(N)=O)[C@@H](OC)/C=C\C=C(/C)C(=O)NC(=CC1=O)C2=O` [Geldanamycin, reference compound] was tested. Which “histological alterations in evaluated organs” value (“histological alterations” below) (C57BL/6 mice) did it give?
A: histological evidence of toxicity in eye and liver

Q: How did the systemic toxicity (UMSCC1 xenografts [1]; UMSCC1 xenograft mice) turn out when `CC(C)[C@H](NC(=O)[C@H](Cc1c[nH]cn1)NC(=O)[C@@H]1CCCN1C(=O)[C@H](CC(N)=O)NC(=O)[C@H](CC(=O)O)NC(=O)[C@@H](NC(=O)[C@H](CO)NC(=O)[C@H](CCCNC(=N)N)NC(=O)[C@H](CCCNC(=N)N)NC(=O)[C@H](CCCNC(=N)N)NC(=O)[C@H](CCC(N)=O)NC(=O)[C@H](CCCNC(=N)N)NC(=O)[C@H](CCCNC(=N)N)NC(=O)[C@H](CCCCN)NC(=O)[C@H](CCCCN)NC(=O)[C@H](CCCNC(=N)N)NC(=O)CNC(=O)[C@H](Cc1ccc(O)cc1)NC(=O)CCCC[C@@H]1SC[C@@H]2NC(=O)N[C@@H]21)C(C)C)C(=O)N[C@@H](CS)C(=O)O` [Specific Peptide] (Biotin-YGRKKRRQRRRSVDNPHVC-OH; N-terminus and C-terminus assumed) was run?
A: No systemic toxicity

Q: And the “time post injection peptide remained detectable in xenografts” value (UMSCC1 xenografts [2])?
A: 72 h

Q: For “Biotin-YGRKKRRORRR-NHVPSDVC [Non Specific Peptide]”, which “clonogenic survival (surviving fraction)” value (MRC5) is on record?
A: 1.04 ± 0.05

Q: And the “clonogenic survival (surviving fraction)” value (HeLa)?
A: 0.92 ± 0.08

Q: What about the “HSP90 levels in tumor or adjacent skin tissue (immunostaining)” value (EGFR) of the same compound?
A: not affected

Q: What about the “clonogenic survival (surviving fraction)” value (UMSCC1 cells) of the same compound?
A: 1.62 ± 0.04

Q: What about the “clonogenic survival (surviving fraction)” value (UMSCC10B) of the same compound?
A: 0.98 ± 0.04

Q: And the “clonogenic survival (surviving fraction)” value (A549)?
A: 0.81 ± 0.09

Q: What about the “median tumor doubling time” value (UMSCC1 xenografts [1]; UMSCC1 xenografts, single dose) of the same compound?
A: 5.5 days

Q: What about the “clonogenic survival (surviving fraction)” value (H1975) of the same compound?
A: 0.77 ± 0.17

Q: And the EGFR-HSP90 interaction (EGFR-HSP90 interaction)?
A: no effect

Q: What about the “clonogenic survival (surviving fraction)” value (H3255) of the same compound?
A: 1.0 ± 0.07

Q: What about the “clonogenic survival (surviving fraction)” value (UMSCC74B) of the same compound?
A: 0.88 ± 0.10

Q: And the “binding of peptide with HSP90 versus peptide concentration” value (HSP90)?
A: minimal interaction

Q: And the “clonogenic survival (surviving fraction)” value (CHO)?
A: 1.12 ± 0.14

Q: What about the “clonogenic survival (surviving fraction)” value (Het1A) of the same compound?
A: 0.91 ± 0.11

Q: DEAYVMASVDNPHVCRLLGIC [Peptide 5] was tested. Which “Survival Fraction” value (UMSCC1 cells; clonogenic survival of UMSCC1 cells, synthetic peptides delivered using Chariot) did it give?
A: 1 ± 0.14

Q: Which “complete blood counts and liver cytosolic enzymes (AST, ALT)” value (C57BL/6 mice) does the source give for NHVPSDVC [Peptide 8] here?
A: not significantly different from controls

Q: And the “histological alterations” value (C57BL/6 mice)?
A: no histological alterations

Q: SVDNPHVC [Peptide 2] was tested. Which “complete blood counts and liver cytosolic enzymes (AST, ALT)” value (C57BL/6 mice) did it give?
A: not significantly different from controls

Q: What about the “histological alterations” value (C57BL/6 mice) of the same compound?
A: no histological alterations
